Experiments:
SOD = SOD activity in skin of D-galactose-injected mice; type: in vivo, Kunming mice; settings: 14th week, 100 mg/kg each s.c. once daily for 6 weeks, vs non-supplementation group
Method: (§1) Six-week-old, male, Kunming mice (n=40), weighed about 30±2 g, were obtained from Cavens Lab Animal (Changzhou, China) and housed in a controlled room (25±2° C., 60% relative humidity, 12 h light/dark cycle) with free access to water and standard laboratory diet. After an acclimation period (1 week), mice were randomly divided into four groups. Each mouse's back skin was chosen as the experimental observation area, a razor was used to shave off the back hair. 5% sodium sulfide solution was applied to the back to remove the hair. All mice were then injected subcutaneously with same volume of D-galactose (1000 mg/kg), once a day for 8 weeks. During the entire experiment, the daily food intake and weight of each mouse were recorded every day, and the D-galactose injection dose were adjusted according to the weight change. The four groups were non-supplement group (Con, Group 1); DHB supplement group (100 mg/kg, Group 2); EGT supplement group (100 mg/kg, Group 3); and EGT+DHB supplement group (100 mg/kg EGT+100 mg/kg DHB, Group 4). Mice in groups 2-4 were injected subcutaneously (s.c.) into their back skins with the corresponding concentration before each major meal once daily for 6 weeks. All mice were sacrificed after 6 weeks at the end of the experiment. […] The levels of H2O2, SOD, CAT, GSH, and GSH-Px in the skin were detected with relative kits as reference. […]

GSH = GSH activity in skin of D-galactose-injected mice; type: in vivo, Kunming mice; settings: 14th week, 100 mg/kg each s.c. once daily for 6 weeks, vs non-supplementation group
Method: as §1

GSH-Px = GSH-Px activity in skin of D-galactose-injected mice; type: in vivo, Kunming mice; settings: 14th week, 100 mg/kg each s.c. once daily for 6 weeks, vs non-supplementation group
Method: as §1

CAT = CAT activity in skin of D-galactose-injected mice; type: in vivo, Kunming mice; settings: 14th week, 100 mg/kg each s.c. once daily for 6 weeks, vs non-supplementation group
Method: as §1

[1] = system: advanced glycation end products (AGEs) formed from bovine serum albumin (BSA) and D-ribose; test: Measurement of glycation: fluorescence of AGEs from BSA incubated with D-ribose; type: biochemical; settings: BSA 1 mg/ml + D-ribose 10 mM, 37° C., 10 days; EGT 3 mM alone or DHB 3 mM + EGT 3 mM
Method: The formulation of glycation products was observed placing together a bovine serum albumin (BSA) and D-ribose in the absence of DHB and EGT, EGT only and DHB and EGT combination.
Specifically, a solution of BSA at a concentration of 1 mg/ml dissolved in phosphate-buffered saline (PBS) was incubated at 37° C. for 10 days with D-ribose at a concentration of 10 mM, in the presence of EGT only (3 mM, Group 1) and the DHB (3 mM) and EGT (3 mM) combination (Group 2).
So, the glycation was evaluated by measuring the fluorescence of the AGEs at λem=450 nm emitted by each sample after excitation at λex=380 nm. The inhibition of glycation was visualized by the decrease in fluorescence compared with the samples treated with the sugar alone.

For `COc1ccc2c(c1OC)CN1CCc3cc4c(cc3C1=C2)OCO4` [DHB, Dihydroberberine], the “SOD activity (in words)” value (SOD) was “significantly improved”, the “GSH activity (in words)” value (GSH) was “significantly improved” and the “GSH-Px activity (in words)” value (GSH-Px) was “significantly improved”. The “CAT activity (in words)” value (CAT) was “significantly improved”.
`C[N+](C)(C)[C@@H](Cc1c[nH]c(=S)[nH]1)C(=O)[O-]` [EGT, ergothioneine] was tested, and the “SOD activity (in words)” value (SOD) was “significantly improved”, the “GSH activity (in words)” value (GSH) was “significantly improved” and the “GSH-Px activity (in words)” value (GSH-Px) was “significantly improved”. For the same compound, the “anti-glycation activity (in words)” value [1] was “fabulous anti-glycation activity” and the “CAT activity (in words)” value (CAT) was “significantly improved”.

From US20250381171A1, “COMBINATION OF DIHYDROBERBERINE AND ERGOTHIONEINE TO REDUCE OR INHIBIT ADVANCED GLYCATION END-PRODUCTS” (NANJING NUTRABUILDING BIO-TECH CO., LTD., priority 2023, published 2025)
